Experimental data: patent publication US20260062432A1 (REXPHARMTECH CO., LTD, priority 2022, published 2026)
Values after ≈ are worked out from the molar mass of the structure shown. Counter-ions that a name gives are not always drawn.

Assays:
[1] = Stability test under harsh conditions (60° C.±2° C.), HPLC analysis; assay type: physicochemical; conditions: for purity (HPLC), Day 3 / purity (HPLC), Day 7 / purity (HPLC), Day 14 / purity (HPLC), Day 21 / purity (HPLC), Initial: harsh conditions 60° C.±2° C.; for purity change: stability test for 21 days under harsh conditions
Procedure: A stability test of a pharmaceutical means to confirm the stability of constant quality over time under certain conditions to set the storage method and shelf life of the pharmaceutical. Therefore, an expiration date of a product is set by setting appropriate specifications and evaluating conformance to the specifications by evaluating significant changes based on a prescribed analytical method.
Specifically, a stability test was conducted under harsh conditions (60° C.±2° C.) according to the ICH guidelines, and an analysis was performed by high-performance liquid chromatography (HPLC) analysis.

[2] = Solubility test (saturated solution, HPLC); assay type: physicochemical
Procedure: After diluting a reference solution with 50% acetonitrile, a calibration curve (range: […]) was prepared by USP compendial HPLC analysis, and the concentration of the saturated solution was obtained from a first-order function of the prepared calibration curve.

[3] = versus thiamine hydrochloride or thiamine nitrate; cited from earlier work
[4] = system: mouse model of Alzheimer's disease; conditions: cited from earlier work
[5] = system: patients with mild cognitive impairment or Alzheimer's disease; conditions: cited from earlier work
[6] = system: p-ERK, p-AKT, and NR2B in primary cultured hippocampal neurons; assay: Immunoblot test: activation of neuroplastic factors in hippocampal cells; assay type: cell-based, SD rats (Sprague-Dawley rats); conditions: 1 or 3 μg/ml, 10 minutes, FIG. 5
Procedure: All cells used in the experiment were primary cultured hippocampal neurons. Hippocampal neurons were isolated from embryos of SD rats (Sprague-Dawley rats, Samtaco Korea) on gestation Day 18 and Day 19. A hippocampal nerve tissue of fetal rats was physically separated by using a dissecting microscope and then placed in HBSS (Hank's Balanced Salt Solution) supplemented with 0.25% trypsin and treated at 37° C. for 10 minutes. After washing the hippocampal nerve tissue with HBSS, single cells were isolated by carefully pipetting with a pipette. The isolated cells were cultured by filling a 60 mm cell culture dish, coated with Poly-L-lysine (0.5 mg/ml) in advance, with Neurobasal/B27 medium (0.5 mM L-glutamine, 25 μM glutamate, 25 μM 2-mercaptoethanol, 100 U/mL penicillin, 100 μg/ml streptomycin) at 5% CO2 and 37° C. The medium was exchanged on cell culture Day 4 and Day 11, and the cells were used in the experiment on culture Day 14. To confirm p-ERK, p-AKT, and NR2B in cells, the medium of primary cultured hippocampal neurons cultured for 14 days was changed to a B-27-free medium at least 1 hour before drug treatment. […] The disrupted cell solution was quantified according to a protein quantification method, and then for protein analysis (immunoblotting), the protein was subjected to electrophoresis on 8% and 10% SDS-polyacrylamide gel. The membrane was subjected to a reaction at room temperature for 1 hour by adding 5% skim milk. A primary antibody was treated with tris buffered saline at a ratio of 1:1000, subjected to a reaction at 4° C. for 24 hours, and then washed three times with TBST (25 mM Tris-Hcl, 140 mM NaCl, 0.1% Tween 20, pH 7.5). After that, a secondary antibody was subjected to a reaction with Anti-Rabbit or Anti-Mouse antibody (HRP-linked) in 3% skim milk at a ratio of 1:5000 for 1 hour. The coupled antibody complex was confirmed by using West Femto Maximum Sensitivity Substrate (Thermo), and the results are shown in FIG. 5.

| Structure (SMILES) | purity (HPLC), Day 3 [1] | purity (HPLC), Day 7 [1] | purity (HPLC), Day 14 [1] | purity (HPLC), Day 21 [1] | purity (HPLC), Initial [1] | purity change [1] | Solubility ([2]; Purified water) | Solubility ([2]; pH 1.2) | Solubility ([2]; pH 4.0) | Solubility ([2]; pH 6.8) | solubility at 1 h ([2]; purified water and solutions at pH 1.2, pH 4.0 and pH 6.8, aqueous buffer, thermodynamic from solid, purified water and solutions at pH 1.2, pH 4.0 and pH 6.8, read-out: solubility (range over all media)) | bioavailability higher than thiamine hydrochloride or thiamine nitrate [3] | level of phosphorylated tau [4] | number of amyloid plaques [4] | spatial memory [4] | rate of functional decline [5] | solubility (in words) ([2]; purified water and all solutions at pH 1.2, pH 4.0, and pH 6.8) | level of NR2B [6] | level of phosphorylated Akt [6] | level of phosphorylated ERK [6] |
| --- | --- | --- | --- | --- | --- | --- | --- | --- | --- | --- | --- | --- | --- | --- | --- | --- | --- | --- | --- | --- |
| C/C(=C(\CCOP(=O)(O)O)SC(=O)c1ccccc1)N(C=O)Cc1cnc(C)nc1N [Comparative Example, benfotiamine] | 99.1 | 98.6 | 97.5 | 97.0 | 99.5 | 2.5% | 3.0 mg/mL (≈ 6.43 mM) | 5.6 mg/mL (≈ 12 mM) | 3.1 mg/mL (≈ 6.65 mM) | 6.6 mg/mL (≈ 14.1 mM) | 3000 to 6600 µg/mL (≈ 6.43 to 14.1 mM) | about 3.6 times | reduces | reduces | improves spatial memory in a dose-dependent manner | effective and safe in slowing down the rate of functional decline | – | – | – | – |
| C/C(=C(\CCOP(=O)(O)O)SC(=O)c1ccccc1)N(C=O)Cc1cnc(C)nc1N [Example 1, benfotiamine choline salt] | 99.2 | 99.1 | 99.0 | 98.2 | 99.3 | 1.1% | 652.1 mg/mL | 898.4 mg/mL | 690.2 mg/mL | 820.0 mg/mL | – | – | – | – | – | – | very high solubility | effectively increased | effectively increased | effectively increased |
